Target: T1, GLP-1R (Homo sapiens, UniProt P43220)
T1 construct: expressed in transfected cells
Experiment: GLP-1R agonistic effect in GLP1R-cAmp-Luc cells (luciferase reporter; titled 'Enzymatic assay')
Format: cell-based
Details: for EC50: 4 hours incubation, firefly luciferin signal; for EC50 of Positive reference / EC50 of Compound of the Present Application: Positive reference is PF-06882961
Experimental: The GLP-1R agonistic effects of the test compounds were determined using GLP1R-cAmp-Luc cells. 1) The test compound was dissolved in DMSO and mixed well until the test compound was completely dissolved. The test compounds were dissolved in DMSO to prepare 10 mM stock solutions. All compounds were diluted with DMEM medium (high sugar, Puromycin^+, Hygromycin B^+) to an initial concentration of 1250 nM, and then subjected to 5-fold serial dilution to a total of 7 concentration gradients. The GLP1R-cAmp-Luc cells were seeded in white-wall 96-well cell culture plates at a density of 1×10^5/mL, with 90 µL cell suspension per well; the test compound at each of the 7 concentration gradients was added at 10 µL per well, with the actual initial working concentration of 125 nM; and the cells were placed in a 37 °C, 5% CO2 cell incubator for 4 hours; 2) 100 µL of luciferin potassium salt solution diluted to 300 µg/mL in PBS was added to each well at a working concentration of 150 µg/mL and incubated at room temperature for 30 minutes; 3) fluorescence signals of firefly luciferin were measured with a multifunctional microplate reader (PerkinElmer, Nivo); and the fluorescence values were processed using GraphPad Prism software to calculate EC50 values.

T1 sequence (P43220 24-463, species assumed): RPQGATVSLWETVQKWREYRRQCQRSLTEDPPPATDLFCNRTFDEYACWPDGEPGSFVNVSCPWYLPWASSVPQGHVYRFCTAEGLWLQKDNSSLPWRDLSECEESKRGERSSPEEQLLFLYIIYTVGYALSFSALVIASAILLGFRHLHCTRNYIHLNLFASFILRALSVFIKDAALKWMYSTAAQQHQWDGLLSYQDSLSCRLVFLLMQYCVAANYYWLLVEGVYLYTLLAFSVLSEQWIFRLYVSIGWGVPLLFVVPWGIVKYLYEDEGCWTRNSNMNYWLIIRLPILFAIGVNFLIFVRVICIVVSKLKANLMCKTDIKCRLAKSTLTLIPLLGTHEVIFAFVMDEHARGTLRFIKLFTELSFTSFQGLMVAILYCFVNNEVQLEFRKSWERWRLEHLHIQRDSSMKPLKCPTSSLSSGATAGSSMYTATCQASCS

Row | SMILES | EC50 | EC50 of Positive reference / EC50 of Compound of the Present Application
1 | COc1cc(C(=O)O)cc2c1nc(Cc1c(F)cc(-c3ccc(Br)c(OCc4ccc(Cl)cc4F)n3)c3c1CCO3)n2C[C@@H]1CCO1 [Compound 109, (S)-2-((7-(5-bromo-6-((4-chloro-2-fluorobenzyl)oxy)pyridin-2-yl)-5-fluoro-2,3-dihydrobenzofuran-4-yl)methyl)-4-methoxy-1-(oxetan-2-ylmethyl)-1H-benzo[d]imidazole-6-carboxylic acid] | 1 to 5 nM | –
2 | COc1cc(C(F)(F)F)ccc1COc1ccnc(-c2cc(F)c(Cc3nc4c(OC)cc(C(=O)O)cc4n3C[C@@H]3CCO3)c3c2OCC3)n1 [Compound 125, (S)-2-((7-(4-((2-methoxy-4-(trifluoromethyl)benzyl)oxy)pyrimidin-2-yl)-5-fluoro-2,3-dihydrobenzofuran-4-yl)methyl)-4-methoxy-1-(oxetan-2-ylmethyl)-1H-benzo[d]imidazole-6-carboxylic acid] | ≤ 1 nM | Ratio ≥10
3 | CC(C)Oc1cc(C(=O)O)cc2c1nc(Cc1c(F)cc(-c3ccnc(OCc4ccc(Cl)cc4F)n3)c3c1CCO3)n2C[C@@H]1CCO1 [Compound 119, (S)-2-((7-(2-((4-chloro-2-fluorobenzyl)oxy)-pyrimidin-4-yl)-5-fluoro-2,3-dihydrobenzofuran-4-yl)methyl)-4-isopropoxy-1-(oxetan-2-ylmethyl)-1H-benzo[d]imidazole-6-carboxylic acid] | 1 to 5 nM | –
4 | COc1cc(C(F)(F)F)ccc1COc1cccc(-c2cc(F)c(Cc3nc4c(OC)cc(C(=O)O)cc4n3C[C@@H]3CCO3)c3c2OCC3)n1 [Compound 80, (S)-2-((5-fluoro-7-(6-((2-methoxy-4-(trifluoromethyl)benzyl)oxy)pyridin-2-yl)-2,3-dihydrobenzofuran-4-yl)methyl)-4-methoxy-1-(oxetan-2-ylmethyl)-1H-benzo[d]imidazole-6-carboxylic acid] | ≤ 1 nM | Ratio ≥10
5 | N#Cc1ccc(COc2cccc(-c3cc(F)c(Cc4nc5c(F)cc(C(=O)O)cc5n4C[C@@H]4CCO4)c4c3OCC4)n2)c(F)c1 [Compound 13, (S)-2-((7-(6-((4-cyano-2-fluorobenzyl)oxy)pyridin-2-yl)-5-fluoro-2,3-dihydrobenzofuran-4-yl)methyl)-4-fluoro-1-(oxetan-2-ylmethyl)-1H-benzo[d]imidazole-6-carboxylic acid] | ≤ 1 nM | Ratio ≥10
6 | COc1cc(C(=O)O)cc2c1nc(Cc1c(F)cc(-c3ccc(F)c(OCc4ccc(C5COC5)cc4F)n3)c3c1CCO3)n2C[C@@H]1CCO1 [Compound 126, (S)-2-((7-(5-fluoro-6-((2-fluoro-4-(oxetan-3-yl)benzyl)oxy)pyridin-2-yl)-5-fluoro-2,3-dihydrobenzofuran-4-yl)methyl)-4-methoxy-1-(oxetan-2-ylmethyl)-1H-benzo[d]imidazole-6-carboxylic acid] | ≤ 1 nM | Ratio ≥10
7 | O=C(O)c1ccc2nc(Cc3ccc(-c4cccc(OCc5ccc(Cl)cc5F)n4)c4c3CCC4=O)n(C[C@@H]3CCO3)c2c1 [Compound 20, (S)-2-((7-(6-((4-chloro-2-fluorobenzyl)oxy)pyridin-2-yl)-1-oxo-2,3-dihydro-1H-inden-4-yl)methyl)-1-(oxetan-2-ylmethyl)-1H-benzo[d]imidazole-6-carboxylic acid] | 1 to 5 nM | –
8 | O=C(O)c1ccc2nc(Cc3ccc(-c4cccc(OCc5ccc(Cl)cc5F)n4)c4[nH]ccc34)n(C[C@@H]3CCO3)c2c1 [Compound 9, (S)-2-((7-(6-((4-chloro-2-fluorobenzyl)oxy)pyridin-2-yl)-1H-indol-4-yl)methyl)-1-(oxetan-2-ylmethyl)-1H-benzo[d]imidazole-6-carboxylic acid] | 1 to 5 nM | –
9 | O=C(O)c1ccc2nc(Cc3c(F)cc(-c4ccnc(OCc5ccc(Cl)cc5F)n4)c4c3CCO4)n(C[C@@H]3CCO3)c2c1 [Compound 124, (S)-2-((7-(2-((4-chloro-2-fluorobenzyl)oxy)pyrimidin-4-yl)-5-fluoro-2,3-dihydrobenzofuran-4-yl)methyl)-1-(oxetan-2-ylmethyl)-1H-benzo[d]imidazole-6-carboxylic acid] | ≤ 1 nM | –
10 | COc1cc(C(=O)O)cc2c1nc(Cc1c(F)cc(-c3cccc(OCc4ccc(Cl)cc4OC(F)F)n3)c3c1CCO3)n2C[C@@H]1CCO1 [Compound 84, (S)-2-((7-(6-((4-chloro-2-(difluoromethoxy)benzyl)oxy)pyridin-2-yl)-5-fluoro-2,3-dihydrobenzofuran-4-yl)methyl)-4-methoxy-1-(oxetan-2-ylmethyl)-1H-benzo[d]imidazole-6-carboxylic acid] | ≤ 1 nM | Ratio ≥10
11 | COc1cc(C(=O)O)cc2c1nc(Cc1c(F)cc(-c3nc(OCc4ccc(C5COC5)cc4F)ncc3F)c3c1CCO3)n2C[C@@H]1CCO1 [Compound 128, (S)-2-((7-(5-fluoro-2-((2-fluoro-4-(oxetan-3-yl)benzyl)oxy)pyrimidin-4-yl)-5-fluoro-2,3-dihydrobenzofuran-4-yl)methyl)-4-methoxy-1-(oxetan-2-ylmethyl)-1H-benzo[d]imidazole-6-carboxylic acid] | ≤ 1 nM | Ratio ≥10
12 | COc1cc(C(=O)O)cc2c1nc(Cc1c(F)cc(-c3ccnc(OCc4ccc(C)cc4F)n3)c3c1CCO3)n2C[C@@H]1CCO1 [Compound 133, (S)-2-((7-(2-((2-fluoro-4-methylbenzyl)oxy)pyrimidin-4-yl)-5-fluoro-2,3-dihydrobenzofuran-4-yl)methyl)-4-methoxy-1-(oxetan-2-ylmethyl)-1H-benzo[d]imidazole-6-carboxylic acid] | ≤ 1 nM | Ratio ≥10
13 | N#Cc1ccc(COc2cccc(-c3cc(Cl)c(Cc4nc5ccc(C(=O)O)cc5n4C[C@@H]4CCO4)c4c3OCC4)n2)c(F)c1 [Compound 7, (S)-2-((5-chloro-7-(6-((4-cyano-2-fluorobenzyl)oxy)pyridin-2-yl)-2,3-dihydrobenzofuran-4-yl)methyl)-1-(oxetan-2-ylmethyl)-1H-benzo[d]imidazole-6-carboxylic acid] | ≤ 1 nM | Ratio ≥10
14 | COc1cc(C(F)(F)F)ccc1COc1ncc(F)c(-c2cc(F)c(Cc3nc4c(OC)cc(C(=O)O)cc4n3C[C@@H]3CCO3)c3c2OCC3)n1 [Compound 130, (S)-2-((7-(5-fluoro-2-((2-methoxy-4-(trifluoromethyl)benzyl)oxy)pyrimidin-4-yl)-5-fluoro-2,3-dihydrobenzofuran-4-yl)methyl)-4-methoxy-1-(oxetan-2-ylmethyl)-1H-benzo[d]imidazole-6-carboxylic acid] | ≤ 1 nM | Ratio ≥10
15 | COc1cc(C(=O)O)cc2c1nc(Cc1c(F)cc(-c3cccc(OCc4ccc(C#N)cc4F)n3)c3c1CCO3)n2C[C@@H]1CCO1 [Compound 100, (S)-2-((7-(6-((4-cyano-2-fluorobenzyl)oxy)pyridin-2-yl)-5-fluoro-2,3-dihydrobenzofuran-4-yl)methyl)-4-methoxy-1-(oxetan-2-ylmethyl)-1H-benzo[d]imidazole-6-carboxylic acid] | ≤ 1 nM | Ratio ≥10
16 | CCn1cncc1Cn1c(Cc2c(F)cc(-c3cccc(OCc4ccc(Cl)cc4F)n3)c3c2CCO3)nc2c(OC)cc(C(=O)O)cc21 [Compound 111] | 1 to 5 nM | –
17 | COc1cc(C(F)(F)F)ccc1COc1cccc(-c2ccc(Cc3nc4c(OC)cc(C(=O)O)cc4n3C[C@@H]3CCO3)c3c2OCCO3)n1 [Compound 62, (S)-4-methoxy-2-((8-(6-((2-methoxy-4-(trifluoromethyl)benzyl)oxy)pyridin-2-yl)-2,3-dihydrobenzo[b][1,4]dioxan-5-yl)methyl)-1-(oxetan-2-ylmethyl)-1H-benzo[d]imidazole-6-carboxylic acid] | 1 to 5 nM | –
18 | COc1cc(C(=O)O)cc2c1nc(Cc1c(F)cc(-c3ccnc(OCc4ccc(Cl)cc4F)n3)c3c1CCO3)n2C[C@@H]1CCO1 [Compound 106, (S)-2-((7-(2-((4-chloro-2-fluorobenzyl)oxy)pyrimidin-4-yl)-5-fluoro-2,3-dihydrobenzofuran-4-yl)methyl)-4-methoxy-1-(oxetan-2-ylmethyl)-1H-benzo[d]imidazole-6-carboxylic acid] | ≤ 1 nM | Ratio ≥10
19 | O=C(O)c1ccc2nc(Cc3c(F)cc(-c4cccc(OCc5ccc(Cl)cc5F)n4)c4c3CCO4)n(C[C@@H]3CCO3)c2c1 [Compound 12, (S)-2-((7-(6-((4-chloro-2-fluorobenzyl)oxy)pyridin-2-yl)-5-fluoro-2,3-dihydrobenzofuran-4-yl)methyl)-1-(oxetan-2-ylmethyl)-1H-benzo[d]imidazole-6-carboxylic acid] | ≤ 1 nM | Ratio ≥10
20 | COc1cc(C(=O)O)cc2c1nc(Cc1c(F)cc(-c3nccc(OCc4ccc(C5COC5)cc4F)n3)c3c1CCO3)n2C[C@@H]1CCO1 [Compound 127, (S)-2-((7-(4-((2-fluoro-4-(oxetan-3-yl)benzyl)oxy)pyrimidin-2-yl)-5-fluoro-2,3-dihydrobenzofuran-4-yl)methyl)-4-methoxy-1-(oxetan-2-ylmethyl)-1H-benzo[d]imidazole-6-carboxylic acid] | 1 to 5 nM | –

Source: patent EP4748839A1 (CSPC Zhongqi Pharmaceutical Technology (Shijiazhuang) Co., …, priority 2023, dated 2025)
